Reference: patent publication US20020013350A1 (priority 1998, published 2002)

System: cabbage black rot bacterium (Xanthomonas campestris)
Test: Control test on cabbage black rot
Type: in vivo
Settings: 350 ppm, cabbage sprayed four times at intervals of 7 days
Text: Two days after the second spraying, the cabbage was inoculated with an aqueous suspension of cabbage black rot bacterium (Xanthomonas campestris) by the method of spraying. Two weeks after the final spraying, the cabbage was investigated to calculated the degree of disease occurrence according to the following criterion. In the untreated plot, the degree of disease occurrence was 44.7.
Degree of disease occurrence=Σ(Number of hills at every degree of occurrence)×100÷(Number of hills investigated×3)
From the degree of disease occurrence, controlling degree was calculated according to the following equation. […] [formula]

Oc1cccc2cccnc12.[Cu] [8-Hydroxyquinoline-copper, 8-Hydroxyquinoline copper]
Controlling degreee (%): 59%
Degree of disease occurrence: 18.2
Percentage of diseased hills (%): 54.5%
